# Experimental data reported in publication PMC11046469, “Leveraging a Phage-Encoded Noncanonical Amino Acid: A Novel Pathway to Potent and Selective Epigenetic Reader Protein Inhibitors” (ACS Central Science, 2024).
# “And” between values parts separate entries of the source, which are not always exact repeats. Equal values may be shown once. Where a SMILES comes first, the peptide text is derived from it. The star is where a group is joined. Oxazole(5-CO) = O=C(c1cnco1)*; Crotonyl(E) = C/C=C/C(=O)*; 2Furoyl = O=C(c1ccco1)*; Butyryl = CCCC(=O)*
# Biological target: T1, ENL YEATS domain (His-ENL YEATS) (Homo sapiens, UniProt Q03111)
# T1 construct: (aa 1−148) was cloned in pET19b; made in house; host or cells: E. coli BL21(DE3pLysS)
# T1 sequence (Q03111 1-148): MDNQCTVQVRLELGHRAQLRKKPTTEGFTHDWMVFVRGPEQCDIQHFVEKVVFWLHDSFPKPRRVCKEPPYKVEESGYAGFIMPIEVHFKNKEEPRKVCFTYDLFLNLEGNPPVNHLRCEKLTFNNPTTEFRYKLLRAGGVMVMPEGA
# Test: AlphaScreen inhibition of ENL YEATS binding to biotinylated H3K27cr peptide
# Settings: mean ± SD, n = 3
# Excerpt: To test the inhibition potency of the two selected peptides for the ENL YEATS domain, ENL-S1 and ENL-S2 were chemically synthesized through solid-phase peptide synthesis (SPPS) and evaluated by an AlphaScreen assay. In this assay, a biotinylated H3K27cr peptide and a 6xHis-tagged ENL YEATS domain (His-ENL YEATS) were immobilized on PerkinElmer streptavidin donor and nickel-chelating (Ni-NTA) acceptor beads, respectively. The use of a His-ENL YEATS instead of the original AviSUMO-ENL YEATS construct in the assay prevents potential false positive results derived from ligands which bind to the SUMO protein but not to the ENL YEATS domain. […] We then assessed the binding affinity of two ligands for the ENL YEATS domain using biolayer interferometry (BLI). Briefly, His-ENL was immobilized onto Ni-NTA functionalized biosensors to measure the binding kinetics of target peptides at different concentrations. […] As a small peptide directly selected from a phage display library, this level of high potency was unexpected. […] However, shorter-than-10-mer linear peptides with nanomolar binding potency have rarely been directly selected from phage display libraries. One example was S2P03, a 7-mer peptide that has a KD value as 49 ± 9 nM to bind to SIRT2.[10] This peptide contained BuK and was identified also from a BuK-containing phage display library using the active site-directed ligand selection technique. Taken together, the two examples confirmed that utilizing phage display libraries incorporated with a ncAA serving as a ligand for a protein target for active site-directed ligand selection is a successful method for identifying ultrahigh potency ligands for epigenetic proteins including both enzymes and readers. For ENL-S1 and ENL-S2, their determined kon and koff values were 6.23 ± 0.07 × 10^4 M^–1 s^–1, […] and […], 5.54 ± 0.02 × 10^–3 s^–1, respectively. Compared to ENL-S2, ENL-S1 has faster binding to the ENL YEATS domain and slower release from it, indicating its potential long-term action on the ENL YEATS inhibition. […]
# Characterization of Selected Peptide Inhibitors
# AlphaScreen Assay to Validate ENL Inhibitors:
# His-ENL, His-AF9 (aa 1-149, EpiCypher), and biotinylated H3K27cr (aa 15-33, EpiCypher) were used to assay the synthesized inhibitors. The lyophilized peptide inhibitors were dissolved in DMF […]
# and serially diluted into assay buffer (50 mM HEPES, 100 mM NaCl, 0.1% BSA, 0.05% CHAPS, pH 7.4) and incubated in the presence of 120 nM His-tagged protein at 37 °C for 30 minutes. 12.5 μL of biotinylated H3K27cr (400 nM) was aliquoted into a light gray 384-well Alphaplate (Perkin Elmer) and incubated at 37 °C. 12.5 μL of the inhibitor/protein solution was added to the H3K27cr solution, and incubated for 30 minutes at 37 °C. 25 μL of AlphaScreen histidine (nickel chelate) detection beads (Perkin Elmer) was added at 20 μg/mL each bead (streptavidin donor beads and nickel chelate acceptor beads), and the plate was incubated at 37 °C for 30 minutes. The plate was cooled to room temperature for 10 minutes, and then the beads were excited at 680 nm and the luminescence at 615 nm was read. […]
# Biolayer […]
# interferometry assays were performed in 96 well plates (GreinerBio-One, polypropylene, flat-bottom) using an Octet Red96 System (Sartorius). Wells were filled with 200 μL of assay buffer, blocking buffer (assay buffer + 0.1% BSA), protein solution, peptide solution, regeneration solution, and reload solution. For immobilization, His-tagged proteins were immobilized onto Ni-NTA sensors at 20 for 600 s. Sensors were then dipped into blocking buffer for 180 s, assay […] buffer for 300 s, peptide solution for 300 s, and back to assay buffer for 300 s. If multiple samples were tested, Ni-NTA sensors can be reconditioned in regeneration (10 mM glycine, pH 1.7) solution followed by reload solution (10 mM NiCl2) for 30 and 60 s, respectively. Measurements […]
row,SMILES,IC50
1,CCCC(=O)NCCCC[C@H](NC(=O)[C@H](Cc1ccc(O)cc1)NC(=O)[C@H](CS)NC(=O)[C@H](Cc1ccc(O)cc1)NC(=O)[C@@H](NC(=O)[C@H](CC(=O)O)NC(=O)[C@@H](N)Cc1ccc(O)cc1)C(C)C)C(N)=O [ENL-S1] (H-YDVYCYK(Butyryl)-NH2),62.6 ± 1.4 nM
2,C/C=C/C(=O)NCCCC[C@H](NC(=O)[C@H](Cc1ccc(O)cc1)NC(=O)[C@H](CS)NC(=O)[C@H](Cc1ccc(O)cc1)NC(=O)[C@@H](NC(=O)[C@H](CC(=O)O)NC(=O)[C@@H](N)Cc1ccc(O)cc1)C(C)C)C(N)=O [ENL-S1c] (H-YDVYCYK(Crotonyl(E))-NH2),20 nM
3,CC(C)[C@H](NC(=O)[C@H](CC(=O)O)NC(=O)[C@@H](N)Cc1ccc(O)cc1)C(=O)N[C@@H](Cc1ccc(O)cc1)C(=O)N[C@@H](CS)C(=O)N[C@@H](Cc1ccc(O)cc1)C(=O)N[C@@H](CCCCNC(=O)c1ccco1)C(N)=O [ENL-S1f] (H-YDVYCYK(2Furoyl)-NH2),22.4 ± 2.2 nM
4,CC(C)[C@H](NC(=O)[C@H](CC(=O)O)NC(=O)[C@@H](N)Cc1ccc(O)cc1)C(=O)N[C@@H](Cc1ccc(O)cc1)C(=O)N[C@@H](CS)C(=O)N[C@@H](Cc1ccc(O)cc1)C(=O)N[C@@H](CCCCNC(=O)c1cnco1)C(N)=O [ENL-S1o] (H-YDVYCYK(Oxazole(5-CO))-NH2),10 nM and 10.3 nM
